Data taken from article PMC4243055 (Cell, 2014).

Target: T1, Cdc25 phosphatase (CnCdc25) (Cryptococcus neoformans, UniProt J9VTJ5)
T1 sequence (J9VTJ5 442-662): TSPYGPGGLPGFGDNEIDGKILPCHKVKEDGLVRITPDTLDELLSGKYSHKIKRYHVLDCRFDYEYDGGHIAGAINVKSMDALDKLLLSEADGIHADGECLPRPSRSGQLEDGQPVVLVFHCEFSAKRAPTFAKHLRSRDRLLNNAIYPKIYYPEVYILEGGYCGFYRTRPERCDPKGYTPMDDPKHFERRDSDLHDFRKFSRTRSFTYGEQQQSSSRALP
Experiment: in vitro phosphatase assay with OMFP substrate, Michaelis-Menten kinetics
Format: biochemical

Ki: ~250 µM
Compound: O=C1C(NCCN2CCOCC2)=C(Cl)C(=O)c2ncccc21 [NSC 663284, 7-Chloro-6-(2-morpholin-4-ylethylamino)-quinoline-5,8-dione]
